According to ChEMBL document CHEMBL2424616, “Synthesis and antimicrobial activity of novel 5-(1-adamantyl)-2-aminomethyl-4-substituted-1,2,4-triazoline-3-thiones” (2013):
≈ marks a conversion by molar mass, not a printed value.

Key:
Type in all cases: functional
Candida albicans = assay: Antifungal activity against Candida albicans IFO 0583 assessed as growth inhibition at 200 ug/disc after 48 hrs by agar disc-diffusion method; conditions: IFO 0583, 48 h, read-out: DIZ
Pseudomonas aeruginosa = assay: Antibacterial activity against Pseudomonas aeruginosa IFO 3448 assessed as growth inhibition at 200 ug/disc after 24 hrs by agar disc-diffusion method; conditions: IFO 3448, 24 h, read-out: DIZ
Escherichia coli = assay: Antibacterial activity against Escherichia coli IFO 3301 assessed as growth inhibition at 200 ug/disc after 24 hrs by agar disc-diffusion method; conditions: IFO 3301, 24 h, read-out: DIZ
Micrococcus luteus [1] = assay: Antibacterial activity against Micrococcus luteus IFO 3232 assessed as growth inhibition at 200 ug/disc after 24 hrs by agar disc-diffusion method; conditions: IFO 3232, 24 h, read-out: DIZ
Bacillus subtilis [2] = assay: Antibacterial activity against Bacillus subtilis IFO 3007 after 24 hrs by two fold dilution method; conditions: IFO 3007, 24 h
Bacillus subtilis [3] = assay: Antibacterial activity against Bacillus subtilis IFO 3007 assessed as growth inhibition at 200 ug/disc after 24 hrs by agar disc-diffusion method; conditions: IFO 3007, 24 h, read-out: DIZ
Staphylococcus aureus [4] = assay: Antibacterial activity against Staphylococcus aureus IFO 3060 after 24 hrs by two fold dilution method; conditions: IFO 3060, 24 h
Staphylococcus aureus [5] = assay: Antibacterial activity against Staphylococcus aureus IFO 3060 assessed as growth inhibition at 200 ug/disc after 24 hrs by agar disc-diffusion method; conditions: IFO 3060, 24 h, read-out: DIZ
Micrococcus luteus [6] = assay: Antibacterial activity against Micrococcus luteus IFO 3232 after 24 hrs by two fold dilution method; conditions: IFO 3232, 24 h

SMILES | MIC (Bacillus subtilis [2]) | MIC (Staphylococcus aureus [4]) | MIC (Micrococcus luteus [6]) | zone of inhibition at 200 µg/disc (Candida albicans) | zone of inhibition at 200 µg/disc (Pseudomonas aeruginosa) | zone of inhibition at 200 µg/disc (Escherichia coli) | zone of inhibition at 200 µg/disc (Micrococcus luteus [1]) | zone of inhibition at 200 µg/disc (Bacillus subtilis [3]) | zone of inhibition at 200 µg/disc (Staphylococcus aureus [5])
S=c1n(CNc2ccccc2)nc(C23CC4CC(CC(C4)C2)C3)n1-c1ccc(Cl)cc1 | – | – | – | < 10 mm | < 10 mm | < 10 mm | < 10 mm | < 10 mm | < 10 mm
Cn1c(C23CC4CC(CC(C4)C2)C3)nn(CNc2ccccc2)c1=S | – | – | – | < 10 mm | < 10 mm | < 10 mm | < 10 mm | 12 mm | < 10 mm
FC(F)(F)c1ccc(NCn2nc(C34CC5CC(CC(C5)C3)C4)n(-c3ccc(Cl)cc3)c2=S)cc1 | 8 µg/mL (≈ 15.4 µM) | – | 16 µg/mL (≈ 30.8 µM) | < 10 mm | 11 mm | 14 mm | 18 mm | 22 mm | 16 mm
Fc1ccccc1NCn1nc(C23CC4CC(CC(C4)C2)C3)n(-c2ccc(Cl)cc2)c1=S | – | – | – | < 10 mm | < 10 mm | < 10 mm | 12 mm | 12 mm | 11 mm
Cn1c(C23CC4CC(CC(C4)C2)C3)nn(CNc2ccc(F)cc2)c1=S | – | – | – | < 10 mm | < 10 mm | < 10 mm | < 10 mm | 12 mm | 12 mm
CCOc1ccc(NCn2nc(C34CC5CC(CC(C5)C3)C4)n(C)c2=S)cc1 | – | – | – | < 10 mm | < 10 mm | < 10 mm | < 10 mm | < 10 mm | < 10 mm
S=c1n(CN2CCN(Cc3ccccc3)CC2)nc(C23CC4CC(CC(C4)C2)C3)n1-c1ccc(Cl)cc1 | – | – | – | < 10 mm | < 10 mm | < 10 mm | 11 mm | 12 mm | 11 mm

Further lines, with some results ahead:

MIC (Bacillus subtilis [2]) | MIC (Staphylococcus aureus [4]) | MIC (Micrococcus luteus [6]) | SMILES | zone of inhibition at 200 µg/disc (Candida albicans) | zone of inhibition at 200 µg/disc (Pseudomonas aeruginosa) | zone of inhibition at 200 µg/disc (Escherichia coli) | zone of inhibition at 200 µg/disc (Micrococcus luteus [1]) | zone of inhibition at 200 µg/disc (Bacillus subtilis [3]) | zone of inhibition at 200 µg/disc (Staphylococcus aureus [5])
16 µg/mL (≈ 29.1 µM) | 16 µg/mL (≈ 29.1 µM) | – | COc1ccccc1N1CCN(Cn2nc(C34CC5CC(CC(C5)C3)C4)n(-c3ccc(Cl)cc3)c2=S)CC1 | < 10 mm | < 10 mm | < 10 mm | 16 mm | 18 mm | 18 mm
1 µg/mL (≈ 2.08 µM) | 1 µg/mL (≈ 2.08 µM) | 2 µg/mL (≈ 4.16 µM) | CCN1CCN(Cn2nc(C34CC5CC(CC(C5)C3)C4)n(/N=C/c3ccc(O)cc3)c2=S)CC1 | < 10 mm | 13 mm | 17 mm | 25 mm | 29 mm | 30 mm
8 µg/mL (≈ 16.4 µM) | – | – | Fc1cccc(F)c1NCn1nc(C23CC4CC(CC(C4)C2)C3)n(-c2ccc(Cl)cc2)c1=S | 13 mm | 11 mm | 14 mm | 17 mm | 20 mm | 18 mm
1 µg/mL (≈ 1.79 µM) | 1 µg/mL (≈ 1.79 µM) | 16 µg/mL (≈ 28.6 µM) | COc1ccccc1N1CCN(Cn2nc(C34CC5CC(CC(C5)C3)C4)n(/N=C/c3ccc(O)cc3)c2=S)CC1 | < 10 mm | 14 mm | 16 mm | 18 mm | 29 mm | 30 mm
8 µg/mL (≈ 16.9 µM) | – | – | CCN1CCN(Cn2nc(C34CC5CC(CC(C5)C3)C4)n(-c3ccc(Cl)cc3)c2=S)CC1 | < 10 mm | < 10 mm | < 10 mm | 15 mm | 18 mm | 14 mm
4 µg/mL (≈ 7.57 µM) | 8 µg/mL (≈ 15.1 µM) | 16 µg/mL (≈ 30.3 µM) | Oc1ccccc1/C=N/n1c(C23CC4CC(CC(C4)C2)C3)nn(CN2CCN(c3ccccc3)CC2)c1=S | < 10 mm | 12 mm | 14 mm | 18 mm | 25 mm | 22 mm
0.5 µg/mL (≈ 1.04 µM) | 1 µg/mL (≈ 2.08 µM) | 2 µg/mL (≈ 4.16 µM) | CCN1CCN(Cn2nc(C34CC5CC(CC(C5)C3)C4)n(/N=C/c3ccccc3O)c2=S)CC1 | < 10 mm | 11 mm | 16 mm | 24 mm | 30 mm | 26 mm
